Columns and labels:
ZR75.1 cells [1] = assay: Xenograft in nude mice, tumor growth; type: in vivo, Balb/c nude mice; conditions: ZR75.1 (ER-positive), α-MT in drinking water 2 mg/ml
Description: (§1) FIGS. 10A to 10D. In vivo efficacy of α-MT in the treatment of ER-positive breast cancer. ZR75.1 (FIG. 10A), MCF7 (FIG. 10B), and MB-231 (FIG. 10C) cells were injected subcutaneously (sc) into Balb/c nude mice (10×10^6 cells per injection site). For MCF7 cells, slow-releasing estrogen pellets were implanted to support the tumor growth. For each cell line, the control group received water with sucrose and the treatment group received α-MT (2 mg/ml) in water with sucrose. Tumor size was measured periodically. NS, not statistically significant (p>0.05); *, p<0.005; two-tailed unpaired Student's t test. In FIG. 10D, Balb/c nude mice were divided into two groups; the control group received water with sucrose and the treatment group received α-MT (2 mg/ml) in water with sucrose for 2 weeks. Mice were then bled and α-MT in plasma was determined by HPLC. Xenograft in nude mice. Human breast cancer cells (ZR75.1, MCF7, and MB231) were injected s.c. close to the lower mammary gland on the right side of Balb/c nude mice (10×10^6 cells per injection site). Only for MCF7 cells, slow-releasing estrogen pellets were implanted to support the tumor growth. Implantation of estrogen pellets was done as follows. […] Tumor size in control and treatment groups was measured periodically by caliper and […] was calculated using the formula (width^2×length)/2.

MB231 cells = assay: Xenograft in nude mice, tumor growth; type: in vivo, Balb/c nude mice; conditions: MB231 (ER-negative), α-MT in drinking water 2 mg/ml
Description: as §1

Human SLC6A14 = target: T1, Human SLC6A14 (Homo sapiens, UniProt Q9UN76); assay: SLC6A14 transport function in X. laevis oocytes (two-microelectrode voltage-clamp); type: cell-based; conditions: 1 mM α-MT; currents induced by 100 M (so in the source) leucine, glutamine or arginine
T1 construct: expressed in transfected cells; host or cells: Xenopus laevis oocytes, microinjected with human SLC6A14 cRNA
T1 sequence (Q9UN76 1-642): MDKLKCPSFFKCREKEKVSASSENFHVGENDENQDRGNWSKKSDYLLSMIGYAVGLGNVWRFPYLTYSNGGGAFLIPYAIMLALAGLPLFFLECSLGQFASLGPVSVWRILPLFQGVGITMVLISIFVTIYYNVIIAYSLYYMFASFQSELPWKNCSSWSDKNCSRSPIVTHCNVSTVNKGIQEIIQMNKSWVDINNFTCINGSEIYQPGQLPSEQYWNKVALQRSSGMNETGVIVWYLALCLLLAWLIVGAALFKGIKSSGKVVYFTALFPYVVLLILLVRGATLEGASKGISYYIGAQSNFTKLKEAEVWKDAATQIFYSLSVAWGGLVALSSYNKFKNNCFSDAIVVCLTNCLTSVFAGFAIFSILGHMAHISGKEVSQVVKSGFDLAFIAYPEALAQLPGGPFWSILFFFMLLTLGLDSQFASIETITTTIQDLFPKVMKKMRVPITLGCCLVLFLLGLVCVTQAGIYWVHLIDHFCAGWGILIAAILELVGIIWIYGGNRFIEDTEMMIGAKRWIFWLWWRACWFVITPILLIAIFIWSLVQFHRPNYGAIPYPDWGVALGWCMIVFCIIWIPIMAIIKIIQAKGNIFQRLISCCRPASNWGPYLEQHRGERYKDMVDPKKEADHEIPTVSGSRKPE
Text: FIGS. 3A and 3B. Natactivation kinetics of SLC6A14-mediated transport of leucine (FIG. 3A) and arginine and glutamine (FIG. 3B). Human SLC6A14 was expressed heterologously in X. laevis oocytes by microinjection of cRNA. Four days following injection, oocytes were used for electrophysiological studies using the two-microelectrode voltage-clamp method. […] Since the expression levels varied from oocyte to oocyte resulting in varying magnitudes of amino acid-induced currents, the currents were normalized by taking the magnitude of the currents induced at 100 mM Na^+ as 1 in each oocyte and calculating the magnitude of the currents induced at other concentrations of Na^+ as a fraction of this maximal current. The experiments were done with three different oocytes and the results are given as means±SE. Insets, Hill plots.
FIG. 4. Cl^−-activation kinetics of SLC6A14-mediated transport of leucine, arginine, and glutamine. […] The experiments were done with three different oocytes and the results are given as means±SE.
FIGS. 5A to 5C. Blockade of SLC6A14-mediated transport of leucine (FIG. 5A), glutamine (FIG. 5B), and arginine (FIG. 5C) by α-MT. Oocytes injected with human SLC6A14 cRNA were perifused with 100 µM leucine, 100 μM glutamine, or 100 μM arginine under varying experimental conditions as indicated.
Analysis of SLC6A14 transport function in X. laevis oocytes. SLC6A14-mediated transport of leucine, glutamine, and arginine and its blockade by α-MT were studied using the X. laevis oocyte heterologous expression system as described previously (Hatanaka et al., 2001, J Clin Invest; 107:1035-1043; and Karunakaran et al., 2008, Biochem J; 414:343-355). Human cloned SLC6A14 cDNA was used in these studies.

MCF7 cells = assay: Cell death by propidium iodide staining and FACS cell cycle analysis; type: cell-based, human; conditions: 48 h
Description: Fluorescence-activated cell sorting (FACS) was used to monitor cell death. MCF7 cells were treated with or without α-MT, 3-MA, or α-MT plus 3-MA. Control and treated cells were then fixed in 50% ethanol, treated with 0.1% sodium citrate, 1 mg/ml RNase A, and 50 μg/ml propidium iodide, and then subjected to FACS analysis (FACS Caliber, Becton Dickinson).

ZR75.1 cells [2] = assay: QCM cell invasion assay; type: cell-based, human; conditions: ZR75.1, α-MT 2.5 mM, p>0.05
Description: (§2) Migration and invasion assays. The influence of α-MT on cell migration and invasion was determined with ZR75.1 cells. The migration of these cells toward fetal bovine serum was measured using the QCM™ cell migration assay kit (Millipore) according to manufacturer's instructions. Serum-starved ZR75.1 cells were allowed to migrate for 48 h in the presence/absence of α-MT (2.5 mM). After removing the cells on the top of the membrane filter, the inserts were stained with 0.1% crystal violet, washed and dried. The crystal violet dye retained on the filters, representing the cells that migrated to the underside of the membrane filter, was extracted with acetic acid. The absorbance of the extract was measured at 570 nm. Cell invasion assay was performed similarly using the QCM™ cell invasion assay kit (Millipore). The inserts used in this assay were coated with ECMATRIX™, representing extracellular matrix.

ZR75.1 cells [3] = assay: QCM cell migration assay; type: cell-based, human; conditions: ZR75.1, α-MT 2.5 mM, 48 h, p>0.05
Description: as §2

In the case of CC(N)(Cc1c[nH]c2ccccc12)C(=O)O (racemic) [α-MT, α-methyl-DL-tryptophan], the “tumor growth in xenograft” value (ZR75.1 cells [1]) is reported as “reduced the growth”, the “tumor growth in xenograft” value (MB231 cells) is reported as “did not affect the growth” and the “blockade of amino acid-induced inward currents” value (Human SLC6A14) is reported as “blocked”. For the same molecule, the “cell death (propidium iodide, cell cycle analysis)” value (MCF7 cells; MCF7, α-MT 2.5 mM alone) was “significant cell death”, the “cell death (propidium iodide, cell cycle analysis)” value (MCF7 cells; MCF7, α-MT 2.5 mM with cotreatment 3-MA 10 mM) was “further potentiated” and the “invasion in α-MT-treated cells” value (ZR75.1 cells [2]) was 95±14 % of control. The “migration in α-MT-treated cells” value (ZR75.1 cells [3]) was 87±7 % of control.
